Measured values: article PMC3809587, “Structure and function of the Smoothened extracellular domain in vertebrate Hedgehog signaling” (eLife, 2013)

Columns and labels:
[1] = tested on: Drosophila melanogaster Smo (dSmo) and dSmo CRD; assay: 20(S)-OHC bead binding of Drosophila Smo; conditions: bead-immobilized 20(S)-OHC
[2] = molecular target: T1, ΔCRD-YFP-mSmo (Mus musculus, UniProt P56726, DEL68-184); assay: Hh signaling by ΔCRD-YFP-mSmo in Smo−/− cells (immunoblot, Hh reporter); type: cell-based
T1 construct: All mSmo mutants were made using Quickchange or PCR methods in the context of a previously described construct encoding full-length mouse Smo (UniProt P56726); expressed in transfected cells

[3] = molecular target: T2, YFP-mSmo (Mus musculus, UniProt P56726); assay: Gli1 and Gli3R immunoblot in Smo−/−:YFP-mSmo cells; type: cell-based; conditions: SAG 100 nM, 20(S)-OHC 10 μM
T2 construct: Smo^−/− cells stably expressing full-length (FL) YFP-mSmo or ΔCRD-YFP-mSmo were treated with Shh, SAG (100 nM) or 20(S)-OHC (10 μM); expressed in transfected cells
Description: Cultured cells stably expressing YFP-mSmo, ΔCRD-YFP-mSmo, or ΔC-YFP-mSmo were scraped into ice-cold PBS containing SigmaFast Protease inhibitor cocktail (Sigma) and collected as a pellet by centrifugation (1000×g, 10 min, 4°C). Cells were lysed (1 hr, 4°C) by agitation in modified RIPA buffer (50 mM sodium-Tris pH 7.4, 150 mM sodium chloride, 2% NP-40, 0.5% deoxycholate, 0.1% sodium-dodecyl sulfate [SDS], 1 mM dithiothreitol and the SigmaFast Protease inhibitor cocktail). After clarification (20,000×g, 45 min, 4°C), the protein concentration of each lysate was measured using the bicinchoninic acid assay (BCA, Pierce/Thermo Scientific, Rockford, IL). Lysate aliquots containing equal amount of total protein were fractionated on an 8% SDS-PAGE gel and transferred to a nitrocellulose membrane for immunoblotting with anti-Gli1 antibody (#L42B10, 1:500; Cell Signaling, Denvers, MA), anti-GFP antibody (1:5000; Novus, Littleton, CO), anti-Gli3 antibody (AF3690 1:200; R&D, Minneapolis, MN) and anti-p38 antibody (ab31828, 1:2000; Abcam, Cambridge, MA). In Figures 1–4, vertical dashed black lines represent non-contiguous lanes from the same immunoblot juxtaposed for clarity.

[4] = molecular target: T3, mSmo CRD-Fc (Mus musculus, UniProt P56726); assay: Ligand affinity chromatography: mSmo CRD-Fc binding to 20(S)-OHC beads; conditions: for inhibition of binding of mSmo CRD-Fc to 20(S)-OHC beads: free compound added as competitor
T3 construct: made in house; host or cells: 293F suspension cells (secreted)
T3 sequence (P56726 33-183): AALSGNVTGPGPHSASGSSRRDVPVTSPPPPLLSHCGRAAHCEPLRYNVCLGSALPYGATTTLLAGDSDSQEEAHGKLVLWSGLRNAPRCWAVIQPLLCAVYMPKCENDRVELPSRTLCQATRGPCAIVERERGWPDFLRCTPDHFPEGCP
Description: After binding was allowed to proceed for 12 hr at 4°C, the resin was washed and captured protein was eluted as described above. The presence of mSmo CRD-Fc was measured by an anti-human HRP-coupled antibody (1:20,000) or anti-human IR800-coupled antibody (1:10,000; for all quantitation, detected by LiCor Odyssey). The presence of zSmo ectodomain protein was measured by colloidal Coomassie staining (GelCode Blue, Pierce/Thermo Scientific). […]

[5] = molecular target: T4, zSmo ectodomain (Danio rerio, UniProt Q5RH73); assay: Ligand affinity chromatography: zSmo ectodomain binding to 20(S)-OHC beads; parameters: species or system zebrafish
T4 construct: zSmo-ectodomain: a.a; 29–212), fused C-terminally with a with a hexa-histidine (His6) tag; His6 (C); made in house
T4 sequence (Q5RH73 29-212): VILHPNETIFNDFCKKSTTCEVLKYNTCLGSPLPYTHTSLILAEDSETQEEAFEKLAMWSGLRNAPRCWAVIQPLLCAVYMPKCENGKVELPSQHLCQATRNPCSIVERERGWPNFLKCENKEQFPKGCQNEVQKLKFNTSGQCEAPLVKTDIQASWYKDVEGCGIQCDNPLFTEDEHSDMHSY
Description: For ligand affinity chromatography with purified mSmo CRD-Fc or zSmo ectodomain, protein was diluted in 20 mM Tris pH 8.5, 150 mM NaCl, 0.3% octyl-glucoside prior to addition of competitors and 20(S)-OHC beads. After binding was allowed to proceed for 12 hr at 4°C, the resin was washed and captured protein was eluted as described above. The presence of mSmo CRD-Fc was measured by an anti-human HRP-coupled antibody (1:20,000) or anti-human IR800-coupled antibody (1:10,000; for all quantitation, detected by LiCor Odyssey). The presence of zSmo ectodomain protein was measured by colloidal Coomassie staining (GelCode Blue, Pierce/Thermo Scientific).
For Hh reporter assays, each point is reported as the mean ± standard deviation (SD) derived from triplicates. Each result in the paper was repeated at least three times with similar outcomes. Relative luciferase activity was calculated by dividing Gli luciferase by Renilla luciferase luminescence. Fold-change in reporter activity was calculated by dividing each replicate by the mean reporter activity of the vehicle-treated control. Normalized (% of max) Hh reporter activity was calculated by setting the maximum value of a set to 100% and zero to 0% using the ‘normalize’ function of GraphPad Prism. […]

[6] = molecular target: T2, YFP-mSmo; assay: 20(S)-OHC bead pull-down of YFP-mSmo from cell lysates; type: binding; conditions: 50 μM free 20(S)-OHC as competitor
Description: 293T cells transfected with constructs encoding mSmo variants were lysed in hypotonic SEAT buffer (250 mM sucrose, 1 mM EDTA, 10 mM acetic acid, 10 mM triethanolamine and the SigmaFast EDTA-Free protease inhibitor cocktail). After the removal of nuclei by centrifugation (900×g, 5 min, 4°C), membranes were pelleted by ultracentrifugation (95,000×g, 30 min) and solubilized in a n-dodecyl-β-D-maltopyranoside (DDM) extraction buffer (50 mM Tris pH 7.4, 150 mM NaCl, 10% vol/vol glycerol, 0.5% wt/vol DDM and the SigmaFast EDTA-Free protease inhibitor cocktail) for 2 hr at 4°C, followed by removal of insoluble material by ultracentrifugation (100,000×g, 30 min). This DDM membrane extract was incubated with 20(S)-OHC beads for 12 hr at 4°C to allow binding to equilibrium. After extensive washing, proteins captured on the beads were eluted with reducing SDS sample buffer. The presence of YFP-mSmo in these eluates was determined by quantitative immunoblotting with an anti-YFP antibody (NB600-308, 1:5000; Novus) and infrared imaging (Li-Cor Odyssey).

[7] = tested on: Zebrafish embryos; assay: Zebrafish embryo treatment: eng2a:GFP reporter and ptch2 in situ hybridization; type: in vivo; conditions: 30hpf embryos, 20(S)-OHC 50 µM; for eng2a:GFP reporter expression: cyclopamine 40 µM
Description: Adult fishes were maintained on a 14-hr light/10-hr dark cycle at 28°C in the AVA (Singapore) certified IMCB Zebrafish Facility. Zebrafish strain used was Tg(eng2a:eGFP)^i233 ([Maurya et al., 2011]).
The embryos of Tg(eng2a:eGFP)^i233 were dechorinated using pronase (Roche) at one cell stage. […] Control embryos were kept in water containing the same amount of ethanol, used as the vehicle for the drugs. Standard in situ hybridization (ISH) was performed with anti-Dig alkaline phosphatase and chromogenic substrate NBT/BCIP as previously described ([Oxtoby and Jowett, 1993]). ptch2 (formerly ptc1) RNA probe was prepared from template as previously described ([Concordet et al., 1996]).

[8] = tested on: Hh reporter (8xGli-responsive promoter); conditions: ref Nachtergaele et al., 2012; cited from earlier work
[9] = tested on: endogenous mSmo in cilia of NIH 3T3 cells; assay: Immunofluorescence of ciliary Smo accumulation; type: cell-based, mouse; conditions: NIH 3T3, 4 hr, presence of Shh
[10] = tested on: endogenous mSmo in cilia of NIH 3T3 cells; parameters: method as in Rohatgi et al., 2009; conditions: absence of Shh; ref Rohatgi et al., 2009; cited from earlier work

T2 sequence (P56726 33-793): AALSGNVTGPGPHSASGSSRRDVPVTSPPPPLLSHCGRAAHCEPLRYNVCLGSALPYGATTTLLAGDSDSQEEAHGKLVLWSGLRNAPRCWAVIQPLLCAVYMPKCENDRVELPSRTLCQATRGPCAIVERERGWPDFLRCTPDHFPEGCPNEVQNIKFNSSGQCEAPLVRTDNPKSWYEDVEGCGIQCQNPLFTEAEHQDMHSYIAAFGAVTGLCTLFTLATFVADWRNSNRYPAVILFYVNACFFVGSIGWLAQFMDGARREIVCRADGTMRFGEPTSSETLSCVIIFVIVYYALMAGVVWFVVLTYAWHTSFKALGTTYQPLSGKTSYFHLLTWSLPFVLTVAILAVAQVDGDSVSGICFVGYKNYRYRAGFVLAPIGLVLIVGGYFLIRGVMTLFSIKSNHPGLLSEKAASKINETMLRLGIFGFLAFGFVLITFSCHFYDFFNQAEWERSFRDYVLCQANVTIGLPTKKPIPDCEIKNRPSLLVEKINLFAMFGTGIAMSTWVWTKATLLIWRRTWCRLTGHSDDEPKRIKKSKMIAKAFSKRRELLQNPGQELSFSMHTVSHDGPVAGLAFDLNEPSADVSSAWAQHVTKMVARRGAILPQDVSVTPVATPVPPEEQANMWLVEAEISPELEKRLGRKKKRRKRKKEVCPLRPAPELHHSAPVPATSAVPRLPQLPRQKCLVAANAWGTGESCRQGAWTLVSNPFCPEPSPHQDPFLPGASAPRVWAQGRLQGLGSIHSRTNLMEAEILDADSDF
T1 sequence (P56726 with tags, fused parts or gaps DEL68-184): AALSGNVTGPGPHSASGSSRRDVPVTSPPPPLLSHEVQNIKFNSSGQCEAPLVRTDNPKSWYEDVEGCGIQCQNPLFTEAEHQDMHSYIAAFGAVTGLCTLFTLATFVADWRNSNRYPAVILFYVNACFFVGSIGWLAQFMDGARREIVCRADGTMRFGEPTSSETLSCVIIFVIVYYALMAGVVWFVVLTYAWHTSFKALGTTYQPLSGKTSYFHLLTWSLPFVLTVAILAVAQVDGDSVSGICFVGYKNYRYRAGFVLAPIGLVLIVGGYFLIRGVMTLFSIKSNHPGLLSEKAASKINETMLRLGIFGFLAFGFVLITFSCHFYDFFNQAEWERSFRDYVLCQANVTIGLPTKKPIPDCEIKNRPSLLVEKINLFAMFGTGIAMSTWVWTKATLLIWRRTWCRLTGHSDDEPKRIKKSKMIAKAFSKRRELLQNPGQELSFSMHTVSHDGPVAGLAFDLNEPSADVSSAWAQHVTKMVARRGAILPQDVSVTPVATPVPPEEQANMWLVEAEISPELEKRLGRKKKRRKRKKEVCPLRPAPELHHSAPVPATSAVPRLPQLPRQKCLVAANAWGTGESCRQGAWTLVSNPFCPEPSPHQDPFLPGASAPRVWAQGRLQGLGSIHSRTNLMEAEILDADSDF

Row | Structure (SMILES) | binding of dSmo and dSmo CRD to 20(S)-OHC beads [1] | response of ΔCRD-YFP-mSmo to agonist (Hh target genes, Gli3R) ([2]; SAG 100 nM, 20(S)-OHC 10 μM) | Gli3R level [3] | activation of Hh target gene Gli1 [3] | Kd ([4]; fixed amount of protein, increasing amounts of bead-immobilized sterol, read-out: Kd, mSmo CRD-Fc-20(S)-OHC interaction) [nM] | inhibition of binding of mSmo CRD-Fc to 20(S)-OHC beads [4] | Kd ([5]; fixed amount of protein, increasing amounts of bead-immobilized sterol, read-out: Kd, zSmo ectodomain-20(S)-OHC interaction) [nM] | inhibition of binding of zSmo ectodomain to 20(S)-OHC beads ([5]; free compound added as competitor) | competition of YFP-mSmo binding to 20(S)-OHC beads [6] | ptch2 expression by in situ hybridization [7] | eng2a:GFP reporter expression [7] | potency against Shh-activated Smo compared to 20(S)-OHC-activated Smo [8] | inhibition of SAG activated ΔCRD-YFP-mSmo ([2]; SAG 25 nM, cyclopamine 5 μM, Hh reporter) | Shh-induced Smo accumulation in cilia [9] | Smo accumulation in cilia, compound alone [10]
1 | CC(C)CCC[C@](C)(O)[C@H]1CC[C@H]2[C@@H]3CC=C4C[C@@H](O)CC[C@]4(C)[C@H]3CC[C@@]21C [20(S)-OHC, 20(S)-hydroxycholesterol] | failed to bind 20(S)-OHC beads | failed to activate Hh target genes or to extinguish Gli3R levels | loss of the repressor form of Gli3 (Gli3R) was observed | could activate a Hh target gene, Gli1 | ~180 | Binding could be inhibited | ~170 | inhibited in a dose-responsive fashion | Binding to beads was not seen | modest expansion of the expression domain | significant increase in the number of GFP positive fast twitch muscles |  |  |  | 
2 | CC1=C2C[C@H]3[C@@H](CC=C4C[C@@H](O)CC[C@@]43C)[C@@H]2CC[C@]12O[C@@H]1C[C@H](C)CN[C@H]1[C@H]2C [cyclopamine] |  |  |  |  |  | blocked the interaction |  |  |  |  | suppressed expression of the reporter gene | much less potent | remained susceptible to inhibition by cyclopamine | do not block Smo ciliary accumulation | can drive Smo accumulation in cilia even in the absence of Shh
